Assay [1] concerns the target T1, TYRO3 (Homo sapiens, UniProt Q06418).
T1 sequence (Q06418 41-890): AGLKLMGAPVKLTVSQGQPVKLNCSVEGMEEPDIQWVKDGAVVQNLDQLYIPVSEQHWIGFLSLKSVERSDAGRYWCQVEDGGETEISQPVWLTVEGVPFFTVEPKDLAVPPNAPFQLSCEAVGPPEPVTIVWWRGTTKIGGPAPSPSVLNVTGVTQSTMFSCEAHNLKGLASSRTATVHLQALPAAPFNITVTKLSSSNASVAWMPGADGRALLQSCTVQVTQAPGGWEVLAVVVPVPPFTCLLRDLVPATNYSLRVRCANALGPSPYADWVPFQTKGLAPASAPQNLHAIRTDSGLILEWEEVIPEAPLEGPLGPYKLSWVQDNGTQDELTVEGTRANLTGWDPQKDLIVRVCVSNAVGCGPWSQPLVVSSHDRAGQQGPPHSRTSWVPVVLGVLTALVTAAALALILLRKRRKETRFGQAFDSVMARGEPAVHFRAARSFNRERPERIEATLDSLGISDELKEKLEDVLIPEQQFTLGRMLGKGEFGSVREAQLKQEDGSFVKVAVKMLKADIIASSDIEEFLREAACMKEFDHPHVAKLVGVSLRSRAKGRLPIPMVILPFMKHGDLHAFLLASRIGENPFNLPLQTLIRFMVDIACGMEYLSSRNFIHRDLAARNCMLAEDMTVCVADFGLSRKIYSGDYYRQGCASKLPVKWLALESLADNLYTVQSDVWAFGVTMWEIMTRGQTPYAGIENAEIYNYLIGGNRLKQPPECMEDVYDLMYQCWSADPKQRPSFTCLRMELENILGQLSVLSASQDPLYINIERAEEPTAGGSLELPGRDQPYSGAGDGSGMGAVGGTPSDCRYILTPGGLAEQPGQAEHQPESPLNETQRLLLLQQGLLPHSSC
Kind of assay: TR-FRET kinase activity assay, TYRO3. The conditions noted are these: ATP at Km, 60 minutes. The format is biochemical. The method in brief: (§1)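 Recombinant human kinases, fluorescent peptide substrate, ATP at Km; 1 h RT, pH 7.5. EDTA-quenched, Eu antibody added, TR-FRET read; IC50 determined.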
For orientation: TR-FRET usually uses a lanthanide donor and a delayed reading to cut background.

Assay [2] addresses T2, MERTK (Homo sapiens, UniProt Q12866).
T2 sequence (Q12866 21-999): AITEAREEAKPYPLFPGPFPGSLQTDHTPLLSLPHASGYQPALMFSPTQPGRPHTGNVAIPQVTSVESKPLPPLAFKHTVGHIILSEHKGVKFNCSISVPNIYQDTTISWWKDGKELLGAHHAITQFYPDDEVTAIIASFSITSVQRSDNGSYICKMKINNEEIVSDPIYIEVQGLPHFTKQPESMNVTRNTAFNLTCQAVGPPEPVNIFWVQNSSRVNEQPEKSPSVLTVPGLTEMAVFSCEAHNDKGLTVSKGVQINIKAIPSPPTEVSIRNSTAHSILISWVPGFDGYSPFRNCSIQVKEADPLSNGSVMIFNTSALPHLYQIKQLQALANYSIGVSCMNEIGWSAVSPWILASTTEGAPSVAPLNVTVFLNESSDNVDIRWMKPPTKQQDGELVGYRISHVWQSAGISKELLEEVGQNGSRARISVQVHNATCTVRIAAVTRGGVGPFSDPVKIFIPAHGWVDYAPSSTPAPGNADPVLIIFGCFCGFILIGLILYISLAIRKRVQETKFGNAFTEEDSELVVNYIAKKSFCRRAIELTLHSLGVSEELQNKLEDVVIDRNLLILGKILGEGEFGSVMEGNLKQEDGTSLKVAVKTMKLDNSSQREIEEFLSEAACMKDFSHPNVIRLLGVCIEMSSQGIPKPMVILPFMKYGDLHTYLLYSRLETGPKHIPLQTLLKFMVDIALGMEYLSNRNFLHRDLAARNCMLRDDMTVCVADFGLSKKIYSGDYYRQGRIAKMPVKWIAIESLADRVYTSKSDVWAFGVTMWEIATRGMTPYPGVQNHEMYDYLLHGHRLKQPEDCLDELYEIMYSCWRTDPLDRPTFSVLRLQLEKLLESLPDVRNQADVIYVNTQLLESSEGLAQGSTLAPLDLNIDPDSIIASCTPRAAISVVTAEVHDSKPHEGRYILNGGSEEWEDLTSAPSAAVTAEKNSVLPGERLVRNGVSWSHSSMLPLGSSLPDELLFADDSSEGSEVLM
Kind of assay: TR-FRET kinase activity assay, MERTK. In kind it is biochemical. The conditions noted are these: for pIC50: TR-FRET activity assay, ATP at Km, 60 minutes, read-out: Mer IC50. A digest of the protocol: as §1

Where [3] appears, read: ratio of Mer to FLT3: FLT3 IC50/Mer IC50.
[4] abbreviates: ratio calculated as FLT3 IC50/Mer IC50.

Results on eleven compounds are retold here after US11040981B2, “Pyrrolotriazine compounds and methods of inhibiting TAM kinases” (Syros Pharmaceuticals, Inc., priority 2017, dated 2021).

pIC50: −log10 of the molar value.

As usually defined, the pIC50 is the negative decadic logarithm of the IC50, by convention in mol/L. As for `COC[C@H](C)Nc1ncc2c(-c3cnn(CC4CC(=O)N(C)C4)c3)cc([C@H]3CC[C@H](O)CC3)n2n1` (stereo partly drawn) [Compound 395], the negative logarithm of the IC50 (pIC50) in assay [1] and in assay [2] was ≥ 7.00 throughout. Also, in assay [2] (setting [3]), the “FLT3/Mer ratio (FLT3 IC50/Mer IC50)” value is “+++ (“+++” represents a ratio of >100)”.
Consider `COC[C@H](C)Nc1ncc2c(-c3cnn(C4COC4)c3)cc(C3CCC(=O)CC3)n2n1` [Compound 406], for which the negative logarithm of the IC50 (pIC50) in assay [1] and in assay [2] was ≥ 7.00 in each case. Besides, in assay [2] (setting [4]), the “FLT3/Mer ratio (FLT3 IC50/Mer IC50)” value is “+++ (“+++” represents a ratio of >100)”.
Take `COC[C@H](C)Nc1ncc2c(-c3cnn(C4(C(=O)NC(C)C)CC4)c3)cc([C@H]3CC[C@H](O)CC3)n2n1` [Compound 415]: the pIC50 in assay [1] and in assay [2] was ≥ 7.00 each time. Further, the “FLT3/Mer ratio (FLT3 IC50/Mer IC50)” value in assay [2] (setting [4]) is listed as “+++ (“+++” represents a ratio of >100)”.
Turning to `CN1CCN(Cc2ccc(-c3cc(C4CCC(O)CC4)n4nc(NC5CCC5(C)C)ncc34)cc2)CC1` (mixture of isomers) [Compound 121], the negative logarithm of the IC50 (pIC50) in assay [1] and in assay [2] was ≥ 7.00 in each case. Moreover, the “FLT3/Mer ratio (FLT3 IC50/Mer IC50)” value in assay [2] (setting [3]) is “++ (“++” represents a ratio of between 10 and 100)”.
Turning to `COCC(C)Nc1ncc2c(C3CCN(c4ccnc(C)n4)C3)cc(C3CCC(O)CC3)n2n1` (stereo not drawn) [Compound 374], the negative-log IC50 (pIC50) in assay [1] and in assay [2] was ≥ 7.00 in each case. For the same compound, in assay [2] (setting [3]), the “FLT3/Mer ratio (FLT3 IC50/Mer IC50)” value is listed as “+++ (“+++” represents a ratio of >100)”.
Regarding `COC[C@H](C)Nc1ncc2c(-c3cnn(C4(C(=O)N5CCOCC5)CC4)c3)cc([C@H]3CC[C@H](O)CC3)n2n1` [Compound 414], the pIC50 in assay [1] and in assay [2] was ≥ 7.00 throughout. Besides, in assay [2] (setting [4]), the “FLT3/Mer ratio (FLT3 IC50/Mer IC50)” value is given as “+++ (“+++” represents a ratio of >100)”.
Regarding `CC1(Nc2ncc3c(-c4cnn(C5COC5)c4)cc(C4CCC(O)CC4)n3n2)COC1` (stereo not drawn) [Compound 399], the negative logarithm of the IC50 (pIC50) in assay [1] and in assay [2] was ≥ 7.00 in each case. Also, the “FLT3/Mer ratio (FLT3 IC50/Mer IC50)” value in assay [2] (setting [4]) is given as “+++ (“+++” represents a ratio of >100)”.
Take `COC[C@H](C)Nc1ncc2c(-c3ccnc(C)c3)cc([C@H]3CC[C@](C)(O)CC3)n2n1` [Compound 391]: the pIC50 in assay [1] and in assay [2] was ≥ 7.00 each time. Also, in assay [2] (setting [3]), the “FLT3/Mer ratio (FLT3 IC50/Mer IC50)” value was “+++ (“+++” represents a ratio of >100)”.
Turning to `C[C@H](CN(C)C)Nc1ncc2c(-c3cnn(C4COC4)c3)cc([C@H]3CC[C@H](O)CC3)n2n1` [Compound 388], the negative-log IC50 (pIC50) was 5.00 to 6.00 in assay [1] and 6.00 to 7.00 in assay [2]. In assay [2] (setting [3]), the “FLT3/Mer ratio (FLT3 IC50/Mer IC50)” value was “++ (“++” represents a ratio of between 10 and 100)”.
With `COC[C@H](C)Nc1ncc2c(-c3cnn([C@H]4CCC(C(=O)OC(C)(C)C)C4)c3)cc([C@H]3CC[C@H](O)CC3)n2n1` (stereo partly drawn) [Compound 365], the negative logarithm of the IC50 (pIC50) in assay [1] and in assay [2] was ≥ 7.00 each time. Moreover, the “FLT3/Mer ratio (FLT3 IC50/Mer IC50)” value in assay [2] (setting [3]) was “+++ (“+++” represents a ratio of >100)”.
As for `COC[C@H](C)Nc1ncc2c(-c3ccnc(O[C@@H]4CCN(C)C4)c3)cc([C@H]3CC[C@H](O)CC3)n2n1` [Compound 402], the negative-log IC50 (pIC50) in assay [1] and in assay [2] was ≥ 7.00 each time. For the same compound, the “FLT3/Mer ratio (FLT3 IC50/Mer IC50)” value in assay [2] (setting [4]) was “+++ (“+++” represents a ratio of >100)”.
